According to patent US11753626B2, “Tumor cell suspension cultures and related methods” (Beijing Percans Oncology Co., Ltd., priority 2016, dated 2023):

test system: tumor cell clusters from colorectal cancer patients; test: ex vivo drug sensitivity assay of tumor cell clusters in suspension culture (Edu incorporation); type: cell-based, human; details: FIG. 4; test conditions of FIG. 3B; short-term suspension culture in defined growth medium
Protocol: Briefly, the non-tumor tissues and the necrotic fractions were carefully removed from the tumor specimen. The tumor tissues were cut into small pieces less than 1 mm in diameter using scissors. Minced tumor fractions were transferred into a sterile 100-ml triangle glass flask loaded with a magnet stir bar. A 10-15 ml digestion media containing 0.25 U/ml Liberase DH was added into the minced tumor tissues to start enzyme digestion. The enzyme mixture was incubated at 37° C. for 1-2 hours with moderate stirring. The partially digested tumor cell clusters were filtered through a 100-μm cell retainer. The filtrates were re-filtered through a 40-μm cell restrainer. The tumor cell clusters retained on the 40-μm cell restrainer was collected, wash twice with HBSS, then re-suspended in a defined growth media supplemented with cell growth factors and small molecule inhibitors.
For ex vivo drug sensitivity assays, the tumor cell clusters were recovered in a defined growth medium overnight. The defined growth medium was StemPro hESC SFM supplement with Nicotinamide, Wnt3A, Noggin, R-spondin-1, and Y27632. The tumor cell clusters were then exposed to drug (e.g., Docetaxel at 2 μM (Cmax)) for 24 hours before the drug was washed away. Following exposure with drug, the tumor cell clusters were labeled with 5-ethynyl-2′-deoxyuridine (Edu) to assess the tumor cell proliferation rates. The labeling started at 48 hours after the drug exposure and continued for 96 hours. In the control group, tumor cell clusters received no drug exposure with media change, but were similarly labeled with Edu. The labeled tumor cell clusters were dissociated into single cells and fixed. The fixed cells were stained with Hoechst 33342 in PBS containing 0.2% Triton X-100 overnight at 4° C. The incorporated Edu was detected by Click-iT reaction where fixed cells were incubated with a reaction mixture containing 1× Click-iT Edu reaction buffer, CuSO4, and azide-conjugated Alexa Fluor dye in the dark. The stained cells were washed with PBS before being distributed into a black wall plate for image acquisition and analysis.
For image acquisition and analysis, the stained tumor cells were imaged by a high-content screening (HCS) platform (Thermo Scientific Cellomics ArrayScan XTi HCS reader). The 10× objective was used to collect images. Twenty-five fields were imaged for each well, and more than 3000 cells were captured for the analysis. From the images two fluorescent signals were obtained from the HCS reader. Blue fluorescent signals recorded nucleus signals stained with Hoechst 33342, and green fluorescent signal detected the Edu incorporated in newly synthesized DNA. The Edu positive subpopulation cells percentage was calculated as percent of the total cell counts. […]

SMILES | growth of tumor cell clusters (inhibition by tested drug)
C[C@@H](Oc1cc(-c2cnn(C3CCNCC3)c2)cnc1N)c1c(Cl)ccc(F)c1Cl [crizotinib] | not completely inhibited
C#Cc1cccc(Nc2ncnc3cc(OCCOC)c(OCCOC)cc23)c1 [erlotinib] | not completely inhibited
O=C1[O][Pt]2([NH][C@@H]3CCCC[C@H]3[NH]2)[O]C1=O [oxaliplatin] | not completely inhibited
CNC(=O)c1cc(Oc2ccc(NC(=O)Nc3ccc(Cl)c(C(F)(F)F)c3)cc2)ccn1 [sorafenib] | not completely inhibited
